Molecules are shown by their SMILES. Bounds are passed on as bounds.

The target of one assay is T1, DGKα (Homo sapiens, UniProt P23743).
T1 construct: His; purchased Signal Chem D21-10BH
In words: In vitro DGKα inhibition assay (ADP-Glo). In kind it is biochemical. The following applies: His-tagged human recombinant enzyme, 0.1 nM DGKα, 50 μM ATP, 20 μM DLG, 90 minute incubation. How it is done:
(§1) The DGKα and DGKζ biochemical reactions were performed using His-tagged human recombinant enzymes (Signal Chem, DGKα, #D21-10BH; DGKζ, #D30-10H)) and DLG (Dilauroyl-sn-glycerol) lipid substrate (Signal Chem, #D430-59). ADP-Glo assay was performed using ADP-Glo™ kinase Assay kit (Promega, #V9104). The reactions were carried out in assay buffer containing 40 mM Tris, pH 7.5, 0.1% CHAPS, 0.1% Prionex, 40 mM NaCl, 5 mM MgCl2, 1 mM CaCl2, and 1 mM DTT. DGKα reactions contained 0.1 nM DGKα, 50 μM ATP, and 20 μM DLG. And DGKζ reactions contained 0.4 nM DGKζ, 30 μM ATP, and 20 μM DLG.
(§2) For compound inhibition studies, 40 nL test compound in DMSO was added to wells of white polystyrene plates in 384-well (Greiner, #784075) or 1536-well format (Greiner, #782075). Compounds were added with top concentration of 2 mM with 11 point, 3-fold dilution series. Enzyme solution (contains 2×DGK enzyme concentration in 1× assay buffer) was added to the plate in 2 μL/well volume, followed by 2 μL/well of substrate solution (contains 2× concentration of ATP and DLG substrate in 1× assay buffer). Plates were then centrifuged for 1 min at 1200 RPM and sealed or lidded. For 4 μL reaction volume, test compounds were therefore diluted 100× to final top concentration of […]. After 90 minute incubation, reactions were quenched by addition of 2 μL/well Promega ADP-Glo Reagent, followed by centrifugation and lidding. After 60 min incubation, 2 μL/well Promega Kinase Detection Reagent was added, plates centrifuged, and incubated for 30 min. Plates were then read using Luminescence method on BMG PHERAstar FSX plate reader. Percent inhibition was calculated and IC50s were determined using 4-parameter fit in Genedata Screener. Labcyte Echo acoustic dispenser was used for compound addition, and Formulatrix Tempest liquid handler was used for all reagent dispenses. The compounds of the disclosure were tested in one or more of the assays described above, and the resulting data are shown in Table A.
In general terms: ADP-Glo first removes unused ATP, then detects ADP through luciferase.

The next assay concerns the target T2, DGKζ (Homo sapiens, UniProt Q13574).
T2 construct: His; purchased Signal Chem D30-10H
Briefly: In vitro DGKζ inhibition assay (ADP-Glo). The format is biochemical. As to conditions: His-tagged human recombinant enzyme, 0.4 nM DGKζ, 30 μM ATP, 20 μM DLG, 90 minute incubation. How it is done: as §1, §2

T2 sequence (Q13574 whole entry): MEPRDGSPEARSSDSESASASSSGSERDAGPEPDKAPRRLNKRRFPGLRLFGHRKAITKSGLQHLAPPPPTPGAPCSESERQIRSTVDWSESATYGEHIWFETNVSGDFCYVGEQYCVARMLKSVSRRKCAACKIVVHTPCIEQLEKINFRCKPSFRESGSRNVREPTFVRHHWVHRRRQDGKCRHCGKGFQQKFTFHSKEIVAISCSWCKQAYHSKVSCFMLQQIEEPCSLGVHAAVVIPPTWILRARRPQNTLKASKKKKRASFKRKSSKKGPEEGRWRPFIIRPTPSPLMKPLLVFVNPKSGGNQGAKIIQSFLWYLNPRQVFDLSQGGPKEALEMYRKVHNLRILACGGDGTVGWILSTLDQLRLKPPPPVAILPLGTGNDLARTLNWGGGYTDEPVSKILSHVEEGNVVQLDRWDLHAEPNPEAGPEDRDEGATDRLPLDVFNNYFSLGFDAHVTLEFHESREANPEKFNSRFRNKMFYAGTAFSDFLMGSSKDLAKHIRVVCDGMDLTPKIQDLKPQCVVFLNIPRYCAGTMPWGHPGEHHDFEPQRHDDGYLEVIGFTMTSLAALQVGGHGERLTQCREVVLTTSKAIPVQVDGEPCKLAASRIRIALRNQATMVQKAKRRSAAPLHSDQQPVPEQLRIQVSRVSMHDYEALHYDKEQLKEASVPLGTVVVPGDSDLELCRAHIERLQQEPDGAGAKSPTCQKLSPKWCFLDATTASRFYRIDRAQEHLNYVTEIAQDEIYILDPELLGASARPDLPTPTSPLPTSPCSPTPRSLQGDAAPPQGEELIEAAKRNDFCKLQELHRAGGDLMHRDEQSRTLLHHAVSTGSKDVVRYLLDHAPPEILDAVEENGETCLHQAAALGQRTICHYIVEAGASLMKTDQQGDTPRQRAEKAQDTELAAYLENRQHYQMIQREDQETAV
T1 sequence (P23743 whole entry): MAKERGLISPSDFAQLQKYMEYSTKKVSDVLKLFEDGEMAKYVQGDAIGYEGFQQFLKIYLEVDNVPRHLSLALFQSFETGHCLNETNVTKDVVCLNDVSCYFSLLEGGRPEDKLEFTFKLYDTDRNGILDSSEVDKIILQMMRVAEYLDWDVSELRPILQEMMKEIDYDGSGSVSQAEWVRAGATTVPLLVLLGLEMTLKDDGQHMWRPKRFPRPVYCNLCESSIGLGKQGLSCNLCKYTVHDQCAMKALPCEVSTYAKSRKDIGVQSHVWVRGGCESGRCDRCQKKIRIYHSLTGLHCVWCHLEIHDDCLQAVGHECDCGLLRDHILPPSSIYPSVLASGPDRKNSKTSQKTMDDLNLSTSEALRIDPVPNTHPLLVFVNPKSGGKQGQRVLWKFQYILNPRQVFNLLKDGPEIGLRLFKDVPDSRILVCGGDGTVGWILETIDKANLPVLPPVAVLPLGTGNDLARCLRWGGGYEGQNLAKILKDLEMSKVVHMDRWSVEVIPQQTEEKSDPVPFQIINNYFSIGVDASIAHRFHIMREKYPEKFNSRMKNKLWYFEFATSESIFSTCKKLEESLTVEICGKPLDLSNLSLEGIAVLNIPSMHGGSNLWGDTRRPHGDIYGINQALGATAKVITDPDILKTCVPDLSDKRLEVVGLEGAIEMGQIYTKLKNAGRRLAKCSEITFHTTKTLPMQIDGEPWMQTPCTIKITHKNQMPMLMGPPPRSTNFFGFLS

For the compound `F/C(=C\c1ccc(Oc2ccccn2)c(C(F)(F)F)c1N1CCCC2(CCN(CC3CC3)CC2)C1)c1csc(-c2ccnnc2)n1` [Example 14, (Z)-4-(2-(2-(9-(Cyclopropylmethyl)-2,9-diazaspiro[5.5]undecan-2-yl)-4-(pyridin-2-yloxy)-3-(trifluoromethyl)phenyl)-1-fluorovinyl)-2-(pyridazin-4-yl)thiazole], the IC50 at DGKα and at DGKζ was at most 0.02 µM each time.
For `CCN1CCC2(CC1)CN(c1c(/C=C(\F)c3csc(-c4ccnnc4)n3)ccc(Oc3ccccc3)c1C(F)(F)F)CCO2` [Example 6, (Z)-9-Ethyl-4-(6-(2-fluoro-2-(2-(pyridazin-4-yl)thiazol-4-yl)vinyl)-3-phenoxy-2-(trifluoromethyl)phenyl)-1-oxa-4,9-diazaspiro[5.5]undecane], the IC50 at DGKα was 0.02 to 0.2 µM; on DGKζ it was at most 0.02 µM.
For the compound `CN(c1c(/C=C(\F)c2csc(-c3ccnnc3)n2)ccc(Oc2ccccc2F)c1C(F)(F)F)[C@H]1CCNC[C@H]1F` [Example 4, (3R,4S)-3-Fluoro-N-(6-((Z)-2-fluoro-2-(2-(pyridazin-4-yl)thiazol-4-yl)vinyl)-3-(2-fluorophenoxy)-2-(trifluoromethyl)phenyl)-N-methylpiperidin-4-amine], the IC50 at DGKα and at DGKζ was 0.02 to 0.2 µM in each case.
`OCCN1CCC2(CCCN(c3c(/C=C(\F)c4csc(-c5ccnnc5)n4)ccc(Oc4ccccn4)c3C(F)(F)F)C2)CC1` [Example 13, (Z)-2-(2-(6-(2-Fluoro-2-(2-(pyridazin-4-yl)thiazol-4-yl)vinyl)-3-(pyridin-2-yloxy)-2-(trifluoromethyl)phenyl)-2,9-diazaspiro[5.5]undecan-9-yl)ethan-1-ol]: the IC50 on DGKα and on DGKζ was at most 0.02 µM each time.
Take `CCN1CC2(CCCN(c3c(/C=C(\F)c4ccn(-c5ccnnc5)n4)ccc(Oc4cccc(F)c4F)c3C(F)(F)F)C2)C1` [Example 19, (Z)-6-(3-(2,3-Difluorophenoxy)-6-(2-fluoro-2-(1-(pyridazin-4-yl)-1H-pyrazol-3-yl)vinyl)-2-(trifluoromethyl)phenyl)-2-ethyl-2,6-diazaspiro[3.5]nonane]: the IC50 on DGKα and on DGKζ was at most 0.02 µM in each case.

What is called IC50 is the concentration needed to halve the response being measured.
